# Results: the METLIN SMRT retention time set (Domingo-Almenara et al. 2019)
# Experiment: gradient 5% acetonitrile 3 min, to 50% in 2 min, to 85% in 15 min, held 3 min, 100 µL/min
# Settings: column: Zorbax Extend-C18 2.1 x 50 mm; eluents: water / acetonitrile, 0.1% formic acid
# Summary of the method: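 Pure standards were run in mixtures of ~100 molecules by HPLC coupled to a quadrupole time-of-flight mass spectrometer. The column was a Zorbax Extend-C18 (2.1 × 50 mm, 1.8 μm) at 100 μL/min, with water and acetonitrile each containing 0.1% formic acid, in positive and negative ionization mode. Dead and dwell volumes were 40 μL and 900 μL. Retention time was taken from computationally picked adduct peaks, each manually inspected, with data collected over 3 months.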
compound,measurement,value
O=c1n(Cc2ccc(Cl)cc2)nc2ccc(S(=O)(=O)N3CCCC3)cn12,RP-LC retention time,906 s
CSc1cccc(NC(=O)C2CCCN(C(=O)c3cc(C)cc(C)c3)C2)c1 (centres undefined),RP-LC retention time,1010 s
CN1CCN(CCCNC(=O)c2noc3c2CCCCC3)CC1,RP-LC retention time,584 s
O=C(Nc1ccccc1)N(Cc1nnc2n1CCCCC2)c1ccc2c(c1)OCO2,RP-LC retention time,703 s
O=C(Nc1cc(F)ccc1F)C1CCCN(c2nc3ccccc3nc2C(F)(F)F)C1 (centres undefined),RP-LC retention time,1270 s
Cc1ccc(S(=O)(=O)Cc2ccc(-c3nc(-c4cccc(-c5ccnn5C)c4)no3)cc2)cc1,RP-LC retention time,1140 s
CCC(CN(C)Cc1ccccc1)NS(=O)(=O)c1ccc2[nH]c(=O)ccc2c1 (centres undefined),RP-LC retention time,600 s
Cc1cnc(C2CC2)n1CCNS(=O)(=O)c1cccc(F)c1,RP-LC retention time,605 s
O=C(CCc1ccccc1)N1CCN(c2nc(CN3CCOCC3)cs2)CC1,RP-LC retention time,624 s
COc1ccc(Cn2cccc2-c2nc(-c3ccncc3)no2)cc1,RP-LC retention time,1080 s
CCOC(=O)Cn1nc(-n2ccnc2)ccc1=O,RP-LC retention time,503 s
COCc1noc([C@@H]2CC(F)(F)CN2S(=O)(=O)c2ccccc2)n1,RP-LC retention time,850 s
Cc1cc(-c2c(C)sc(C)c2S(=O)(=O)NCc2ccccc2Cl)n[nH]1,RP-LC retention time,1060 s
COc1ccc(-c2noc(-c3nc(Cc4ccc(F)cc4)no3)n2)cc1,RP-LC retention time,1170 s
COc1ccc(CNC(=O)C2CCCN(c3nc4c(s3)c(C)nn4-c3ccc(Cl)cc3)C2)cc1 (centres undefined),RP-LC retention time,1200 s
COc1cc2nc(C(=O)N3CCCCC3)cc(Nc3cc(C)cc(C)c3)c2cc1OC,RP-LC retention time,760 s
CSc1ccc(-c2nc3cnccn3c2Nc2ccc(Cl)cc2)cc1,RP-LC retention time,1010 s
CCn1c(=O)c(C(=O)N2CCN(c3ccccn3)CC2)nc2cc(C)c(C)cc21,RP-LC retention time,625 s
COc1ccc(-c2noc(C3CC(=O)N(c4ccc(Cl)cc4)C3)n2)cc1OC (centres undefined),RP-LC retention time,950 s
CCCc1nc(-c2c(C)cc(C)nc2NC(=O)COc2ccccc2)no1,RP-LC retention time,946 s
O=C(CCn1cnnn1)N1CCC2(CC1)CC(CC(=O)N1CCOCC1)CCO2 (centres undefined),RP-LC retention time,585 s
Cc1nnc(C2CCCN(C(=O)c3nc4ccccc4s3)C2)s1 (centres undefined),RP-LC retention time,736 s
O=C(CCc1nc(CSc2nnc(-c3ccccc3)o2)no1)Nc1ccc(Br)cc1,RP-LC retention time,967 s
O=C(NCCc1cccs1)C1CN(S(=O)(=O)C2CC2)CC12CCCCC2 (centres undefined),RP-LC retention time,934 s
Cc1cccc(N(C)C(=O)Cn2nc3nc(N4CCCC4)ccn3c2=O)c1,RP-LC retention time,678 s
CCOc1ccc(-c2[nH]ncc2CN)cc1,RP-LC retention time,575 s
CC1(C(=O)NCc2ccc3c(c2)OCO3)CCN(C(=O)c2ccc(C#N)cc2)CC1,RP-LC retention time,754 s
COc1ccccc1-c1nnc(-c2ccc(OC)c(S(=O)(=O)N3CCCCC3)c2)o1,RP-LC retention time,937 s
CN(Cc1cnc2nc(N)nc(N)c2n1)c1ccc(C(=O)NC(CCC(=O)O)C(=O)O)cc1 (centres undefined),RP-LC retention time,666 s
CC(=O)c1cccc(NC(=O)Cn2cc(-c3ccccc3)c3ncn(C4CC4)c(=O)c32)c1,RP-LC retention time,877 s
CC(C)(C)NC[C@H](O)COc1cccc2[nH]c(C#N)cc12,RP-LC retention time,663 s
CCN(CC)CCn1c(C)c(C)c2c1ncn1nc(-c3cccnc3)nc21,RP-LC retention time,590 s
CCn1cc(-c2ccc(F)cc2)cc1C(=O)N1CCC2(CC1)OCCO2,RP-LC retention time,963 s
COC[C@@H]1OCCN(S(=O)(=O)c2cn(C)cn2)[C@H]1c1ccccc1,RP-LC retention time,686 s
Cc1ccc(C)c(Cn2nc3c(S(=O)(=O)N4CCCCCC4)cccn3c2=O)c1,RP-LC retention time,1050 s
O=C(CN1C(=O)C(O)(c2cccc(F)c2)c2ccccc21)NCCC1=CCCCC1 (centres undefined),RP-LC retention time,965 s
O=C(NCc1ccccc1Br)c1ccc(-c2cccnc2)nc1,RP-LC retention time,697 s
COc1ccc(CN(CCN(C)C)c2ncccn2)cc1,RP-LC retention time,707 s
Cc1ccc(N2CCN(C(=O)c3nnc(-c4ccc(S(=O)(=O)N5CCCC5)cc4)o3)CC2)c(C)c1,RP-LC retention time,1190 s
O=S(=O)(Cc1ccccc1)N1CCC(Oc2nc3ccccc3s2)CC1,RP-LC retention time,1060 s
CCc1sc(NC(=O)C2CCCCC2)nc1-c1ccccc1,RP-LC retention time,1200 s
CCOC(=O)c1ccc(NC(=O)Cn2cnc3cc4c(cc32)OCCO4)cc1,RP-LC retention time,662 s
Cc1cc(C)cc(C(=O)N2CCC(COc3ccc(C(=O)NC4CC4)cc3)CC2)c1,RP-LC retention time,887 s
CCN1C(=O)C2CCCCN2c2ccc(C(=O)NCc3ccccc3)cc21 (centres undefined),RP-LC retention time,908 s
CCc1nc2cc(N3CCC(C(=O)Nc4ccc(OC)cc4)CC3)cnc2nc1CC,RP-LC retention time,827 s
COc1cc(NC(=O)C2=C(C)OCCS2)c(Cl)cc1C(=O)N1CCN(C2CCCCC2)CC1,RP-LC retention time,684 s
O=C(NCc1ccc2c(c1)N(C(=O)c1ccc(Cl)cc1)CC2)C1CC1,RP-LC retention time,824 s
Cc1ccc2c(c1)N(S(C)(=O)=O)CCC(C(=O)Nc1ccc(Cl)cc1)O2 (centres undefined),RP-LC retention time,1020 s
Cc1cc(C)c(S(=O)(=O)N2CC(F)(F)C[C@H]2COc2cccnc2)cc1C,RP-LC retention time,817 s
CCCN(CCC)C(=O)C(CCC(=O)O)NC(=O)c1ccccc1 (centres undefined),RP-LC retention time,822 s
Cc1nc(-c2cc3cccc(C)c3nc2NCCc2ccccn2)no1,RP-LC retention time,764 s
Cc1cc2nn(CC(=O)Nc3ccc(C(C)C)cc3)c(=O)n2c(-c2ccccc2)n1,RP-LC retention time,862 s
O=C(Cn1nc(C2CC2)cc1C(=O)N1CCCC1)Nc1ccc(F)cc1Cl,RP-LC retention time,813 s
Cc1nn(C(C)C(=O)Nc2ccc(Cl)cc2)c(=O)c2c(-n3cccc3)n(-c3ccccc3)nc12 (centres undefined),RP-LC retention time,1160 s
COc1ccc(OC)c2sc(NC(=O)CS(=O)(=O)c3ccc(Cl)cc3)nc12,RP-LC retention time,854 s
CCN(CC)CCCNC(=O)C1c2ccccc2C(=O)N(C)C1c1cccs1 (centres undefined),RP-LC retention time,602 s
Cc1cccc(-c2[nH]ncc2-c2ccc3ncccc3n2)n1,RP-LC retention time,635 s
COC(=O)C1=CN(c2cc(F)ccc2C)c2ccc(F)cc2S1(=O)=O,RP-LC retention time,898 s
Cc1ccc(-c2cc3n(n2)CCCN(C(=O)c2cc(CN4CCOCC4)on2)C3)o1,RP-LC retention time,617 s
CN(C)C(=O)c1csc(S(=O)(=O)N2CCC(C(=O)NCc3cccnc3)CC2)c1,RP-LC retention time,579 s
Cc1ccc(N2C(=O)CN(S(=O)(=O)c3ccc(C)cc3)CC2(C)C(=O)NC2CCCC2)cc1 (centres undefined),RP-LC retention time,983 s
COc1ccc(Cl)cc1S(=O)(=O)NCC1CCN(C(=O)c2ccccc2F)CC1,RP-LC retention time,686 s
COc1ccc2[nH]cc(CN3CC[C@H](c4n[nH]c(C)n4)[C@H](N(C)C)C3)c2c1,RP-LC retention time,547 s
COc1ccc(C2C(C(=O)NC(C)C)c3cc(OC)c(OC)cc3C(=O)N2C)cc1OC (centres undefined),RP-LC retention time,662 s
CC1CCN(C(=O)C2CCN(c3cncnc3N(C)C)CC2)CC1,RP-LC retention time,624 s
O=C1CCCN1CCCNc1ccc2nnc(CCC(=O)N3CCN(c4ccccn4)CC3)n2n1,RP-LC retention time,557 s
COc1ccc(NC(=O)C2CC(=O)N(c3ccc4c(c3)CCN4C(=O)C3CC3)C2)cc1 (centres undefined),RP-LC retention time,740 s
CCN1CCN(c2ccc(NC(=O)c3ccc(Cl)cc3)cn2)C1=O,RP-LC retention time,775 s
O=C(NC1CC1)c1nc(C(=O)N2CCN(c3ccccc3)CC2)cs1,RP-LC retention time,759 s
COc1ccc(N2CC(c3noc(-c4ccc(Cl)cc4)n3)CC2=O)cc1 (centres undefined),RP-LC retention time,990 s
CNC(=O)[C@@H]1C[C@@H](O)CN1C1CCN(C(=O)c2cc(C)oc2C)CC1,RP-LC retention time,613 s
CC(C)CNC(=O)N1CCCC(c2nc(C(C)C)no2)CCNC(=O)CC1 (centres undefined),RP-LC retention time,679 s
Cc1ccc(-c2noc(Cc3nnc(-c4cc(C)cc(C)c4)o3)n2)cc1,RP-LC retention time,1190 s
CCOC(=O)CNC(=O)N1CCCC1c1cccc(F)c1 (centres undefined),RP-LC retention time,745 s
CCCNc1nnc(-c2nnc(CC)o2)c2ccccc12,RP-LC retention time,647 s
CCOC(=O)c1cccc(NC(=O)N2CCc3nc[nH]c3C2)c1,RP-LC retention time,601 s
Cc1cccc(NC(=O)C2CCN(S(=O)(=O)c3cc(-c4noc(C5CC5)n4)cs3)CC2)c1C,RP-LC retention time,1020 s
CCOc1ccc(NC(=O)c2cc(C(C)C)n(C3CCS(=O)(=O)C3)n2)cc1 (centres undefined),RP-LC retention time,877 s
COc1ccc(-c2nnc(COc3ccc(NC(=O)c4ccoc4)cc3)o2)cc1,RP-LC retention time,738 s
Cc1ccc(N2C(=O)CN(S(C)(=O)=O)CC2(C)C(=O)NCc2ccccc2)cc1C (centres undefined),RP-LC retention time,758 s
COc1ccccc1OC(C)C(=O)Nc1ccnn1Cc1cccs1 (centres undefined),RP-LC retention time,842 s
O=C(NCCN1CCOCC1)c1nc2ccccn2c1-c1ccc(F)cc1,RP-LC retention time,616 s
COCCNC(=O)CCCN1C(=O)c2ccccc2Sc2ncccc21,RP-LC retention time,634 s
C=CCn1c(=O)c2ccccc2n(Cc2nc(-c3ccc(OC)c(OC)c3)no2)c1=O,RP-LC retention time,937 s
Clc1cccc(-c2noc(Cc3nc(-c4cccs4)cs3)n2)c1,RP-LC retention time,1270 s
COc1ccc(Cl)cc1C(=O)Nc1ccc2c(c1)Sc1ncccc1C(=O)N2C,RP-LC retention time,946 s
O=C(NCCn1nc(-c2cccs2)ccc1=O)c1ccc(=O)n(Cc2ccccc2)n1,RP-LC retention time,678 s
CCOC(=O)c1cccc(NC(=O)C2CCCN(c3ncnc4c3nc3n4CCCCC3)C2)c1 (centres undefined),RP-LC retention time,876 s
COc1ccc(N2CCN(Cc3nc4ccccc4[nH]c3=O)CC2)cc1,RP-LC retention time,614 s
